Columns and labels:
[1] = biological target: T1, ATP-dependent translocase ABCB1 (Homo sapiens, UniProt P08183); assay: TP_TRANSPORTER: cell accumulation in MDR1-expressing MDCK cells; type: functional, cell-based; conditions: dog
[2] = biological target: T1, ATP-dependent translocase ABCB1; assay: TP_TRANSPORTER: cell accumulation of colchicine in the presence of Naringenin at a concentration of 100uM in MDR1-expressing MDCK cells; type: functional, cell-based; conditions: dog

T1 sequence (P08183 whole entry): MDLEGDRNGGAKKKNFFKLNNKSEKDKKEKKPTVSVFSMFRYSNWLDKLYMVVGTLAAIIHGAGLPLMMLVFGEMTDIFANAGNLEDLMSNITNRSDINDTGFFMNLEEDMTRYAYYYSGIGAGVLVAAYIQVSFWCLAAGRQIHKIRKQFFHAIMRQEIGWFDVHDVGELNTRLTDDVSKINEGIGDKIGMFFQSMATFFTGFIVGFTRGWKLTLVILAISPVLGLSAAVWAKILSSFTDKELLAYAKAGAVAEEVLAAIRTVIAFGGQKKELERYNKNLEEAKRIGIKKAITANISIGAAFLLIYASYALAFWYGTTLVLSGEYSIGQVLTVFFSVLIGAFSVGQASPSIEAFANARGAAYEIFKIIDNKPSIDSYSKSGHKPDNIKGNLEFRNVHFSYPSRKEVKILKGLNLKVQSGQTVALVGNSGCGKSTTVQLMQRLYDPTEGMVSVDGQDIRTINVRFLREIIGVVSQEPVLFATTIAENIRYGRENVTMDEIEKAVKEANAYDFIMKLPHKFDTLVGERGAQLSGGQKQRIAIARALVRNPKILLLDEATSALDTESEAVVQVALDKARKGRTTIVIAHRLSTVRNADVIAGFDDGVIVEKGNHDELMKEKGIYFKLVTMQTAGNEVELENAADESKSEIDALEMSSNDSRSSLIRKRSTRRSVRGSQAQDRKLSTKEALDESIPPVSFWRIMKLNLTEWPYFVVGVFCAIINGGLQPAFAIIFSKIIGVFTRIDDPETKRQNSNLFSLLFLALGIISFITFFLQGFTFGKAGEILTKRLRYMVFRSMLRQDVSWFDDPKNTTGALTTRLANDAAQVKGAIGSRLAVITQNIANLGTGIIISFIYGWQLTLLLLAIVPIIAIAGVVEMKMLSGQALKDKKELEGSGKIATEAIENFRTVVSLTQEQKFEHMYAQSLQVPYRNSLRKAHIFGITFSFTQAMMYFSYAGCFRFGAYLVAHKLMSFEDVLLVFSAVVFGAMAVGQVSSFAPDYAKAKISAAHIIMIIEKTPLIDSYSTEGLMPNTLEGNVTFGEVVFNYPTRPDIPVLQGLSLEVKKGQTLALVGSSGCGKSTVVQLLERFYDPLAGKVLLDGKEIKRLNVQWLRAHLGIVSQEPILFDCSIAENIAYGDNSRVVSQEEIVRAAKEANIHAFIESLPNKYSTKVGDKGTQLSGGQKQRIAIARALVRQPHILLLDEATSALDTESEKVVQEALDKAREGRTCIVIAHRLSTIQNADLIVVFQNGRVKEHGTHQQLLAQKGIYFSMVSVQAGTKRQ

## O=C1C[C@@H](c2ccc(O)cc2)Oc2cc(O)cc(O)c21 [NARINGENIN]
[1]
  Activity: substrate [+]
[2]
  Activity: inhibitor [+]
